Patent publication US9393251B2, “Compositions and methods for treating severe thrombocytopenia related disease” (priority 2013, dated 2016)

Experiments:
[1] = system: rheumatoid arthritis, systemic lupus erythematosus and Sjögren's syndrome; assay: Patients with rheumatoid arthritis, systemic lupus erythematosus and Sjögren's syndrome treated with the combination (Example 4); format: in vivo, human; details: after Vitamin D deficiency corrected with high dose Vitamin D replacement
Method: Low levels of vitamin D have been implicated in a number of autoimmune disorders, such as rheumatoid arthritis, systemic lupus erythematosus, and Sjögren's syndrome. Patients with rheumatoid arthritis, systemic lupus erythematosus and Sjögren's syndrome were treated with a combination of weekly high doses of Vitamin D (50,000 IU) and daily doses of 400 mg of hydroxychloroquine.

[2] = Side effects of high-dose Vitamin D in the two ITP patients; format: in vivo, human
Method: The patient's platelet count was 215,000/mm^3 six weeks after discontinuing prednisone, indicating a regimen of hydroxychloroquine at a dose of 200 mg twice a day and Vitamin D at a dose of 50,000 IU once a week was sufficient to maintain a stable count. The patient remained stable without the administration of prednisone.
In the above examples, an association between vitamin D deficiency and immune thrombocytopenia in two patients is described. Both patients had SLE and/or Sjögren's overlap with positive serology and profound life-threatening thrombocytopenia, all of which were unaffected by conventional therapies. […] After discontinuation of supplemental Vitamin D in one patient (Example 1), the 25-OH Vitamin D normalized, but the platelet count subsequently plummeted. Resuming vitamin D supplementation restored the platelet count to the previous normal range.

[3] = system: IL-6 and IL-2; details: Muller et al. 1991; cited from earlier work
[4] = system: multiple sclerosis in the murine model; details: Cantorna 1996; Pedersen 2007; cited from earlier work

Structure (SMILES): C=C1/C(=C\C=C2/CCC[C@]3(C)[C@@H]([C@H](C)CCCC(C)(C)O)CC[C@@H]23)C[C@@H](O)C[C@@H]1O [Vitamin D, 1a,25-dihydroxy cholecalciferol]
- response to disease modifying anti-rheumatic drugs [1]: enhanced
- changes in calcium, phosphate, or creatinine levels ([2]; Example 1 patient): no significant changes
- untoward side effects ([2]; both patients): neither patient experienced any untoward side effect
- production of interleukin IL-6 and IL-2 in cell cultures [3]: reduced
- development of multiple sclerosis in the murine model [4]: can inhibit the development of multiple sclerosis
